Values of other authors, collected in patent US20120015880A1 (priority 2008, published 2012).
Like-named read-outs stand apart in the source and are kept apart here.

Details: in vivo

bioavailability (human): ~100%
half life (human): ~1.5 h
bioavailability (human, inhaled or intranasal): 3-5%
range of Cmax between patients (human, inhaled or intranasal): 6-10 fold
bioavailability (po): far less than one percent
Structure (SMILES): NC(=O)CC[C@@H]1NC(=O)[C@H](Cc2ccccc2)NC(=O)[C@H](Cc2ccc(O)cc2)NC(=O)CCSSC[C@@H](C(=O)N2CCC[C@H]2C(=O)N[C@H](CCCN=C(N)N)C(=O)NCC(N)=O)NC(=O)[C@H](CC(N)=O)NC1=O [desmopressin, 1-desamino-8-D-arginine vasopressin]
